Data taken from paper PMC6858373 (Scientific Reports, 2019).
Counter-ions that a name gives are not always drawn. Like-named read-outs stand apart in the source and are kept apart here.

Columns and labels:
[1] = biological target: full-length P. pyralis luciferase (Photinus pyralis, UniProt P08659, K549A/L550V/N119G/N50D/S548I); format: cell-based
[2] = system: Clone V cells
[3] = biological target: T1, FGF14:Nav1.6 C-tail complex (Homo sapiens, UniProt Q92915+Q9UQD0); experiment: Split-luciferase complementation assay (LCA) in Clone V double stable HEK293 cells; format: cell-based; conditions: for Split Luciferase Assay % Lum Set 1 / Split Luciferase Assay Z-score Set 1: biological replicate Set 1; for Split Luciferase Assay % Lum Set 1 / Split Luciferase Assay %Lum Set 2: normalized to on-plate 0.3% DMSO controls (n=16 per plate); for Split Luciferase Assay %Lum Set 2 / Split Luciferase Assay Z-score Set 2: biological replicate Set 2; for Split Luciferase Assay Z-score Set 1 / Split Luciferase Assay Z-score Set 2: normalized to on-plate 0.3% DMSO controls; for Split Luciferase Assay %Lum Avg: average of Set 1 and Set 2, normalized to 0.3% DMSO controls
T1 construct: polymerase chain reaction (PCR) amplification of the FGF14 open reading frame (nt 1–855); C-terminal fragment of Nav1.6 (amino acids 1763–1976) fused with CD4ΔC-tail (amino acids 1–395); expressed in transfected cells

[4] = CC_NCI screening, full-length luciferase counter-screen luminescence, normalized to on-plate 0.3% DMSO controls
[5] = CC_NCI screening, full-length luciferase counter-screen, normalized to on-plate 0.3% DMSO controls
[6] = CC_NCI screening, LCA luminescence
[7] = CC_NCI screening, normalized to on-plate 0.3% DMSO controls

T1 sequence (Q92915 1-252 isoform Q92915-2): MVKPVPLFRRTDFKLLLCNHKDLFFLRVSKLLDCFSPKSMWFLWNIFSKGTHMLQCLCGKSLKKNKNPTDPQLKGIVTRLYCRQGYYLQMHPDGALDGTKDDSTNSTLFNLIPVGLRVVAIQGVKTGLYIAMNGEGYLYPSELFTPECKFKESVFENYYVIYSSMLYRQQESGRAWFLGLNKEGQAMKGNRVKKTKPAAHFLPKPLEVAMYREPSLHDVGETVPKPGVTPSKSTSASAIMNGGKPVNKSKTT
T1 sequence (Q9UQD0 1763-1976 limits assumed): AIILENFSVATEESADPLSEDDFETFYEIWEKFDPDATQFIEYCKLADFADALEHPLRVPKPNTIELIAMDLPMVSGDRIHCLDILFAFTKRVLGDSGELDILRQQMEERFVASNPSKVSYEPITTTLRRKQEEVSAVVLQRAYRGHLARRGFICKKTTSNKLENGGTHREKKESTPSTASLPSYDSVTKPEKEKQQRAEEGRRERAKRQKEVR
full-length P. pyralis luciferase, sequence (P08659 whole entry N50D/N119G/S548I/K549A/L550V, looked up): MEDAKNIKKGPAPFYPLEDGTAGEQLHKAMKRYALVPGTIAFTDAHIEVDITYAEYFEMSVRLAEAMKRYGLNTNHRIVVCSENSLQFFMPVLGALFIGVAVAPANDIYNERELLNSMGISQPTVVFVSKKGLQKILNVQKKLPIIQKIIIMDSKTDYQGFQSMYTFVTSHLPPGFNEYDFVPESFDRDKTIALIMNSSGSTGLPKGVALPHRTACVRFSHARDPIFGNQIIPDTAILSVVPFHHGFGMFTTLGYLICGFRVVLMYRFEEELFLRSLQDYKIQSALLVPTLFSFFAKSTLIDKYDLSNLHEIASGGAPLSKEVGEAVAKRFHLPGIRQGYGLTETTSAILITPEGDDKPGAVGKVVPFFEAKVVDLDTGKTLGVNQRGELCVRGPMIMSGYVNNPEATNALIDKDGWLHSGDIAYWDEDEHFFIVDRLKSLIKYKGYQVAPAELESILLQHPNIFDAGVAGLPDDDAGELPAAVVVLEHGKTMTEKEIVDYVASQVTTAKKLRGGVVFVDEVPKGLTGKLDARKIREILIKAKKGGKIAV

SMILES	Luciferase Assay % Lum [1, 4]	Luciferase Assay Z-score [1, 5]	Toxicity Assay % Fluor ([2]; human, 16 h, 30 µM)	Toxicity Assay Z-score ([2]; human, 16 h, 30 µM)	Split Luciferase Assay % Lum Set 1 [3, 6]	Split Luciferase Assay %Lum Set 2 [3, 6]	Split Luciferase Assay Z-score Set 1 ([3]; CC_NCI screening, LCA)	Split Luciferase Assay Z-score Set 2 ([3]; CC_NCI screening, LCA)	Split Luciferase Assay %Lum Avg ([3]; CC_NCI screening)	further results
Cn1cc(C2=C(c3ccc(Cl)cc3Cl)C(=O)NC2=O)c2ccccc21 [SB 216763]	100.07%	0.01	101.41%	0.20	88.38%	106.11%	-0.94	0.50	97.25%	–
COc1cc2nccc(Oc3ccc(NC(=O)C4(C(=O)Nc5ccc(F)cc5)CC4)cc3)c2cc1OC [Cabozantinib]	67.75%	-4.13	93.87%	-0.86	27.50%	27.05%	-5.86	-5.94	27.28%	–
CO[C@@H]1[C@H](N(C)C(=O)c2ccccc2)C[C@H]2O[C@]1(C)n1c3ccccc3c3c4c(c5c6ccccc6n2c5c31)C(=O)NC4 [PKC412]	89.50%	-1.34	83.94%	-2.25	54.68%	67.62%	-3.66	-2.63	61.15%	–
O=C(O)C(=O)O.[NH-][C@@H]1CCCC[C@H]1[NH-].[Pt+2] [Oxaliplatin]	102.65%	0.34	–	–	115.56%	119.64%	1.26	1.60	117.60%	Toxicity Assay % Fluor [2]: 90.53%; Toxicity Assay Z-score [2]: -1.32
COc1nc(N)nc2c1ncn2[C@@H]1O[C@H](CO)[C@@H](O)[C@@H]1O [Nelarabine]	–	–	90.75%	-1.29	129.69%	114.43%	2.40	1.17	122.06%	Luciferase Assay % Lum [1]: 93.91%; Luciferase Assay Z-score [1]: -0.78
NC(=O)c1ncn([C@@H]2O[C@H](CO)[C@@H](O)[C@H]2O)c1N [AICAR]	–	–	–	–	–	–	–	–	–	Luciferase Assay % Lum (full-length luciferase counter-screen) [1, 7]: 107.04%; Luciferase Assay Z-score (full-length luciferase counter-screen) [1, 7]: 0.90; Toxicity Assay % Fluor (CTB cell viability fluorescence) [2]: 108.29%; Toxicity Assay Z-score (CTB cell viability) [2]: 1.16; Split Luciferase Assay Z-score Set 1 ([3]; CC_NCI screening): 0.03; Split Luciferase Assay % Lum Set 1 ([3]; CC_NCI screening): 100.34%; Split Luciferase Assay Z-score Set 2 ([3]; CC_NCI screening): 0.84; Split Luciferase Assay %Lum Set 2 ([3]; CC_NCI screening): 110.27%; Split Luciferase Assay %Lum Avg [3]: 105.31%
COc1cccc2c1C(=O)c1c(O)c3c(c(O)c1C2=O)C[C@@](O)(C(C)=O)C[C@@H]3O[C@H]1C[C@H](N)[C@H](O)[C@H](C)O1 [Daunorubicin hydrochloride]	65.12%	-4.47	81.24%	-2.62	48.16%	61.38%	-4.19	-3.14	54.77%	–
CO[C@H]1C[C@@H]2CC[C@@H](C)[C@@](O)(O2)C(=O)C(=O)N2CCCC[C@H]2C(=O)O[C@H]([C@H](C)C[C@@H]2CC[C@@H](OC(=O)C(C)(CO)CO)[C@H](OC)C2)CC(=O)[C@H](C)/C=C(\C)[C@@H](O)[C@@H](OC)C(=O)[C@H](C)C[C@H](C)/C=C/C=C/C=C/1C [Temsirolimus]	68.61%	-4.02	–	–	50.33%	62.42%	-4.01	-3.06	56.38%	Toxicity Assay % Fluor [2]: 93.12%; Toxicity Assay Z-score [2]: -0.96
CN(C)Cc1c(C(=O)NCCOc2ccc(C(=O)NO)cc2)oc2ccccc12 [PCI-24781]	91.15%	-1.13	93.46%	-0.91	118.82%	98.83%	1.52	-0.10	108.83%	–
CO[C@H]1C[C@@H]2CC[C@@H](C)[C@@](O)(O2)C(=O)C(=O)N2CCCC[C@H]2C(=O)O[C@H]([C@H](C)C[C@@H]2CC[C@@H](OC(=O)C(C)(CO)CO)[C@H](OC)C2)CC(=O)[C@H](C)/C=C(\C)[C@@H](O)[C@@H](OC)C(=O)[C@H](C)C[C@H](C)/C=C/C=C/C=C/1C [TEMSIROLIMUS]	65.73%	-4.39	87.05%	-1.81	86.21%	83.22%	-1.11	-1.36	84.72%	–
Fc1ccc(Cl)cc1-c1nc(Nc2ccncc2)c2nccnc2n1 [SD 208]	–	–	–	–	–	–	–	–	–	Luciferase Assay % Lum (full-length luciferase counter-screen) [1, 7]: 88.62%; Luciferase Assay Z-score (full-length luciferase counter-screen) [1, 7]: -1.46; Toxicity Assay % Fluor (CTB cell viability fluorescence) [2]: 107.60%; Toxicity Assay Z-score (CTB cell viability) [2]: 1.06; Split Luciferase Assay Z-score Set 2 ([3]; CC_NCI screening): -3.73; Split Luciferase Assay %Lum Set 2 ([3]; CC_NCI screening): 54.10%; Split Luciferase Assay %Lum Avg [3]: 95.16%
Nc1nc(F)nc2c1ncn2[C@@H]1O[C@H](COP(=O)(O)O)[C@@H](O)[C@@H]1O [Fludarabine phosphate]	119.94%	2.55	95.37%	-0.65	112.30%	119.64%	0.99	1.60	115.97%	–
COc1cc2c(Oc3ccc4[nH]c(C)cc4c3F)ncnc2cc1OCCCN1CCCC1 [CEDIRANIB]	80.88%	-2.45	86.10%	-1.94	69.90%	57.22%	-2.43	-3.48	63.56%	–
CNC(=O)c1ccc(N2C(=S)N(c3ccc(C#N)c(C(F)(F)F)c3)C(=O)C2(C)C)cc1F [Enzalutamide]	–	–	90.81%	-1.28	94.90%	98.83%	-0.41	-0.10	96.87%	Luciferase Assay % Lum [1]: 80.08%; Luciferase Assay Z-score [1]: -2.55
Cl.N[C@@H](Cc1ccc(N(CCCl)CCCl)cc1)C(=O)O [Melphalan hydrochloride]	–	–	–	–	–	–	–	–	–	Luciferase Assay % Lum (full-length luciferase counter-screen) [1, 7]: 85.47%; Luciferase Assay Z-score (full-length luciferase counter-screen) [1, 7]: -1.86; Toxicity Assay % Fluor (CTB cell viability fluorescence) [2]: 107.21%; Toxicity Assay Z-score (CTB cell viability) [2]: 1.01; Split Luciferase Assay Z-score Set 1 ([3]; CC_NCI screening): -1.64; Split Luciferase Assay % Lum Set 1 ([3]; CC_NCI screening): 79.68%; Split Luciferase Assay Z-score Set 2 ([3]; CC_NCI screening): -0.10; Split Luciferase Assay %Lum Set 2 ([3]; CC_NCI screening): 98.83%; Split Luciferase Assay %Lum Avg [3]: 89.26%
O=C1NC(=O)/C(=C/c2ccc3c(c2)OCO3)S1 [AS-041164]	–	–	–	–	–	–	–	–	–	Luciferase Assay % Lum (full-length luciferase counter-screen) [1, 7]: 84.77%; Luciferase Assay Z-score (full-length luciferase counter-screen) [1, 7]: -1.95; Toxicity Assay % Fluor (CTB cell viability fluorescence) [2]: 113.38%; Toxicity Assay Z-score (CTB cell viability) [2]: 1.87; Split Luciferase Assay Z-score Set 1 ([3]; CC_NCI screening): -1.38; Split Luciferase Assay % Lum Set 1 ([3]; CC_NCI screening): 82.95%; Split Luciferase Assay Z-score Set 2 ([3]; CC_NCI screening): 0.50; Split Luciferase Assay %Lum Set 2 ([3]; CC_NCI screening): 106.11%; Split Luciferase Assay %Lum Avg [3]: 94.53%
Cc1[nH]c(/C=C2\C(=O)Nc3ccc(S(=O)(=O)N(C)c4cccc(Cl)c4)cc32)c(C)c1C(=O)N1CCN(C)CC1 [SU 11274]	85.15%	-1.90	97.70%	-0.32	81.86%	81.14%	-1.47	-1.53	81.50%	–
O=C(/C=C/c1ccc(CN(CCO)CCc2c[nH]c3ccccc23)cc1)NO [NVP LAQ824]	95.25%	-0.61	98.78%	-0.17	93.82%	83.22%	-0.50	-1.36	88.52%	–
